The results in this text go back to patent US20240336567A1, “PESTICIDAL AND HERBICIDAL COMPOUNDS AND METHODS OF USE THEREOF” (AG Plenus Ltd, priority 2021, published 2024).

Experiment [1] deals with ECHCO. Put plainly: In-planta LTP post-emergence, visual phenotype. Type of experiment: in vivo, Echinochloa colona. The note with it: monocot. How it is done:
(§1) A basic panel of eight weed species (Table 3) sowed in 4×4×7 cm plastic pots containing a garden mix (klasmann). Each specie was sowed in a separate pot. In each pot, 10-15 seeds were sowed according to the specie viability. Timing of application determined at a 1-2 true leaf stage. The plants grew for 30 days in a controlled greenhouse (26±2° C. day, 20±2° C. night). Hood irrigation (tap water+Shefer 5:3:8 8 mM) was given at a 50% water content by weight. Two days before application, the tested plants thinned down to three plants per pot. Compounds were soluble in water (DDW), and commercial herbicide control was soluble in formulation B (Table 4). […] Plants were evaluated at 3 time points (4, 8, 12 days after application (DAA)). At each time point, visual phenotyping was recorded using a scale of 0-6 (0: no visible effect, 6: maximum effect). […]
(§2) Post-emergence advanced dose response experiment included 4 species: SETVI, ECHCO, AMAPA, ABUTH (Tables 3, 5). […] Plants were evaluated at 4 time points (6, 12, 18 and 26 DAA). At each time point, visual phenotyping was recorded using a scale of 0-6 (0: no visible effect, 6: maximum effect). […]
(§3) Post-emergence advanced wide panel experiment included 24 weed species (Table 5). […] Visual phenotyping was recorded at 4, 11, 17 and 20 DAA using a scale of 0-6 (0: no visible effect, 6: maximum effect). […]

Experiment [2] relates to ABUTH. Put plainly: In-planta LTP post-emergence, visual phenotype. Type of experiment: in vivo, Abutilon theophrasti. The note with it: dicot. How it is done:
as §1, §2, §3

The test system of experiment [3] is ALOMY. Put plainly: In-planta LTP pre-emergence, visual phenotype. The class given is in vivo, Alopecurus myosuroides. The note with it: monocot. How it is done:
(§4) A basic panel of 8 weed species (Table 3) were sowed in 4×4×7 cm plastic pots containing inert sand (Sweet sand), intensively washed using osmosis water. Each specie was sowed in a separate pot. In each pot 10-15 seeds were sowed according to the specie viability. Sowing was performed one day before application. The plants were grown for 21 days in a controlled greenhouse (26±2° C. day 20±2° C. night). Hood irrigation (tap water+Shefer 5:3:8 8 mM) was given at a 50% water content by weight. Compounds were soluble in water (DDW), and commercial herbicide control was soluble in formulation B (Table 4). Application was conducted with an industrial sprayer (TeeJet 6502E nozzle) at a rate of 2 kg/ha and spray volume of […]. Pre-emergence advanced dose response experiment application was conducted at six rates between 1-0.0312 kg/ha and spray volume of […]. Percentage of emergence was evaluated at 15 DAA. Visual phenotyping was recorded using a scale of 0-6 (0: no visible effect, 6: maximum effect) at 18 DAA. All experiments included an untreated control, a solvent control and a positive control (commercial herbicide A.I.). Statistical analysis for visual phenotyping determined by a median value of ≥3.5 and Fisher test (pval≤0.05). Statistical analysis for plant emergence determined by % emergence ≥50 and T test (pval≤0.05), as well as Wilcox test (pval≤0.05).

Experiment [4] concerns SETVI. Description: In-planta LTP post-emergence, visual phenotype. The note with it: monocot. Type of experiment: in vivo, Setaria viridis. How it is done:
as §1, §2, §3

In experiment [5] the test system is MATCA. Put plainly: In-planta LTP pre-emergence, visual phenotype. The class given is in vivo, Matricaria chamomilla. The note with it: dicot. How it is done: as §4
Experiment [6] relates to POAAN. Description: In-planta LTP post-emergence, visual phenotype. Type of experiment: in vivo, Poa annua. The note with it: monocot. How it is done:
as §1, §2, §3

As to `CC(N)COc1cccc(C(=O)O)c1` (stereo not drawn) [Compound 106], the “IG Inhibited growth (% effect)” value in experiment [1] is recorded as “IG^1 (60) %”. Also, the “BL Bleaching (% effect)” value in experiment [2] is on record as “BL (60) %”.

In the case of `C#CCOC(=O)c1cccc(OCC(C)N)c1` (stereo not drawn) [Compound 111], the “IG Inhibited growth (% effect)” value in experiment [3] is listed as “IG (40) %”; in experiment [4], “IG (60) %”. Also, the “BL Bleaching (% effect)” value in experiment [2] was “BL (40) %”.

With `CCCCOC(=O)c1cccc(OCC(C)N)c1` (stereo not drawn) [Compound 112], the “IG Inhibited growth (% effect)” value in experiment [5] is “IG (60) %”.

`C[C@@H](N)COc1cccc(C(=O)O)c1` [Compound 154]: in experiment [3], the “BL Bleaching (% effect)” value is reported as “BL (60) %”; the “DAB Disturbed apical bud (% effect)” value is “DAB (60), %”; the “DE Disturbed emergence (% effect)” value was “DE (40), %”; the “IG Inhibited growth (% effect)” value is on record as “IG (80), %”. The “IG Inhibited growth (% effect)” value in experiment [4] is given as “IG (60) %”. Also, the “IG Inhibited growth (% effect)” value in experiment [6] was “IG (60) %”.
